Experimental findings from PubChem BioAssay AID588523 (Johns Hopkins Ion Channel Center, 2011) are described below.

Activity calls are given as the source filed them.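 The calls were made as follows: active = IC50 below 100 µM from duplicate concentration-response curves; inactive = IC50 above 100 µM.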

Chain of Regulator of G-protein signaling 4 (Rattus norvegicus) (P49799 whole entry, looked up): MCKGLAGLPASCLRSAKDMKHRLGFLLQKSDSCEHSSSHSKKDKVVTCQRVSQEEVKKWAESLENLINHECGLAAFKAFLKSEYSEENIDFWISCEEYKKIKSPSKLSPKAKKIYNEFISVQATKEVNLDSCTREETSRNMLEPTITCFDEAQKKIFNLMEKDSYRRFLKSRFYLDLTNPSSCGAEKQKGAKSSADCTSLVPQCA

This test concerns the target Regulator of G-protein signaling 4 (Rattus norvegicus) (UniProt P49799). The test is described as follows: inhibitors of RGS4–Galphao protein interaction, dose response, biochemical, rat RGS4, AlF4-dependent, flow cytometry bead assay (AID 588523). The note with it: FCPIA, RGS4-Galpha-o binding, bead fluorescence.
Take `COC(=O)CSc1[nH]c2ccccc2c1[N+](=O)[O-]`: the IC50 was > 110 µM (inactive). Under `O=C(N/N=C/c1cc([N+](=O)[O-])ccc1O)NC12CC3CC(CC(C3)C1)C2` stands > 110 µM (inactive). Take `CN1C(=O)S/C(=C\c2ccccc2OCc2ccc(C(=O)O)cc2)C1=O`: the IC50 was > 110 µM (inactive). The same measure for `N[C@@H](Cc1cc(Br)c(O)c(Br)c1)C(=O)O`: > 110 µM (inactive); for `Cc1ccc(CNC(=O)c2cn(C3CCCCC3)c(=O)c3c2c2ccccc2n3C)o1`: > 110 µM (inactive); for `O=C(O)c1ccc(/C=C/C(=O)c2ccc3c(c2)OCCCO3)cc1`: > 110 µM (inactive). As to `Cc1cccc(N2C(=O)/C(=C/c3ccc(C(=O)O)cc3)c3ccccc3C2=O)c1`, the IC50 is > 110 µM (inactive).

`O=[N+]([O-])c1ccc(O)c(/C=N/NC(=S)Nc2ccc(Cl)cc2Cl)c1`: the IC50 is > 110 µM (inactive). As for `O=C1/C(=C\c2ccc(Cl)cc2Cl)N2CCC1CC2`, the IC50 was > 110 µM (inactive). On to `CCOCCCNC(=O)/C(C#N)=C\c1ccc(Cl)c([N+](=O)[O-])c1`, for which the IC50 is > 110 µM (inactive). `Cc1ccccc1OCc1nnc(SCC(=O)Nc2ccc3c(c2)oc2ccccc23)n1C`: the IC50 is > 110 µM (inactive). The same measure for `O=C1NC(=S)N(c2ccccc2F)C(=O)/C1=C\c1cccs1`: 21.3 µM; for `CCOCCCNC(=O)/C(C#N)=C\c1ccc([N+](=O)[O-])o1`: > 110 µM (inactive); for `O=C(O)c1ccc(/C=C2\COc3ccccc3C2=O)cc1`: > 110 µM (inactive).

As for `COC(=O)CSc1[nH]c2cc(C)ccc2c1[N+](=O)[O-]`, the IC50 was > 110 µM (inactive).

Regarding `O=C1/C(=C\c2ccc(Cl)c(Cl)c2)N2CCC1CC2`, the IC50 was > 110 µM (inactive). For `Cc1cc(-c2n[nH]c(=S)n2/N=C/C(Br)=C/c2ccccc2)n[nH]1`, the concentration for half-maximal inhibition (IC50) was 26.1 µM.

With `COc1cccc(/C=C/C(=O)c2c(O)cc(C)oc2=O)c1O`, the IC50 is > 110 µM (inactive). Take `CN1C(=O)/C(=C\c2ccc(Br)s2)C(=O)NC1=S`: the 50% inhibitory concentration (IC50) is 12.5 µM.

In the case of `Oc1c(Cl)cc(Cl)c2c1NCCC2`, the IC50 was > 110 µM (inactive). Turning to `CN(C)C(=O)COc1ccc(C(=O)/C=C/c2cccnc2)cc1`, the IC50 was > 110 µM (inactive). For `O=C(CCNc1ccc(F)cc1)c1ccco1`, the IC50 was > 110 µM (inactive). Under `O=C1N=c2ccccc2=C1c1c(O)n(-c2cccc(F)c2)[nH]c1=O` stands 10.3 µM.

For `COc1ccc(NC(=O)/C(C#N)=C\c2ccc(Sc3nncn3C)c([N+](=O)[O-])c2)cc1`, the IC50 is > 110 µM (inactive).

`NC(=O)N/N=C/c1c(Sc2nnnn2-c2ccccc2)nc2ccccn2c1=O`: the IC50 is > 110 µM (inactive). The same measure for `O=C(/C=C/c1ccc([N+](=O)[O-])cc1)c1ccco1`: > 110 µM (inactive); for `COc1ccc(C(C[N+](=O)[O-])c2c(-c3ccccc3)cc3ccccn23)cc1OC` (stereo not drawn): > 110 µM (inactive). Take `CC1=NOC(=O)/C1=C/c1ccc(O)cc1`: the IC50 is > 110 µM (inactive).

As for `Cc1ccc(C(C2C(=O)CC(C)(C)CC2=O)C2C(=O)CC(C)(C)CC2=O)s1`, the IC50 is 86.8 µM.

Consider `CC(C)(C)c1ccc(Cn2nnc3c(=O)[nH]c(C4CCN(C(=O)Cc5cccs5)CC4)nc32)cc1`, for which the IC50 is > 110 µM (inactive).

Regarding `COc1ccc(-c2csc(NC3OC(=O)c4c3ccc(OC)c4OC)n2)cc1OC` (stereo not drawn), the IC50 is > 110 µM (inactive).

`N#C/C(=C/c1ccc(Cl)c([N+](=O)[O-])c1)c1ccccn1`: the IC50 was > 110 µM (inactive). With `CCOC(=O)C1=C(O)/C(=C\c2cccc(OC)c2)N=C1C`, the IC50 is > 110 µM (inactive). Turning to `Cc1ccc(C(C2=C(O)CC(C)(C)CC2=O)C2C(=O)CC(C)(C)CC2=O)o1` (stereo not drawn), the IC50 is > 110 µM (inactive). As to `Cc1csc(NC(=O)COCC(=O)O)c1-c1nc2ccccc2s1`, the IC50 was > 110 µM (inactive).

Turning to `COc1ccc2cc(C3C(C#N)=C(N)OC(C)=C3C(C)=O)c(Cl)nc2c1` (stereo not drawn), the IC50 was > 110 µM (inactive). As for `CN1C/C(=C/c2ccncc2)C(=O)/C(=C/c2ccncc2)C1`, the IC50 was 5.4 µM. The same measure for `CCOC(=O)/C=C/C(=O)OCC(=O)N1CCN(C(=O)c2ccco2)CC1`: 73.9 µM. On to `COc1cc2c(cc1O)C(SC)=NC(C)(C)C2`, for which the IC50 was > 110 µM (inactive).

As for `Cc1ccc(/C=C/C(=O)N2CC(C)CC(C)C2)o1` (stereo not drawn), the IC50 was 74.9 µM. Under `O=C1C=C(NC2=CC3OC(c4ccccc4)OCC3OC2=O)CCC1` (stereo not drawn) stands > 110 µM (inactive); under `O=C(/C=C/c1ccncc1)c1ccc2c(c1)OCCO2`, 82.2 µM; under `CN1CCc2cc(O)cc3c2[C@H]1Cc1ccc(O)c(O)c1-3`, 7.5 µM.

Take `CCCN1CCc2cc(O)cc3c2[C@H]1Cc1ccc(O)c(O)c1-3`: the 50% inhibitory concentration (IC50) is 9.4 µM. As to `COc1ccc(OC)c(N2C(=O)NC(=O)/C(=C/c3ccc([N+](=O)[O-])s3)C2=O)c1`, the IC50 is 11.9 µM. With `O=C(O)c1ccc2c(c1)C(=O)N(c1cccc(C(=O)/C=C/c3ccccc3)c1)C2=O`, the IC50 was > 110 µM (inactive). In the case of `O=C1/C(=C/c2ccncc2)CCC/C1=C\c1ccncc1`, the concentration for half-maximal inhibition (IC50) was 13.6 µM. Under `Cc1nc2c(=O)n(C)c(=O)n(C)c2nc1Cl` stands 78.7 µM; under `COc1ccc(NC(=O)/C(Cl)=C(/Cl)S(=O)Cc2ccccc2)cn1` (stereo not drawn), 1.7 µM; under `Cc1c(NC(=O)c2coc(=O)c(Br)c2)c(=O)n(-c2ccccc2)n1C`, > 110 µM (inactive). In the case of `Cc1ccc(/C=C2\C(=O)NC(=S)N(c3ccc(F)cc3)C2=O)s1`, the IC50 is 22.1 µM. `O=C/C=C/c1c(-c2ccccc2)cc2oc3ccccc3cc1-2`: the IC50 was > 110 µM (inactive). In the case of `Cn1c(OCc2ccco2)nc2c1c(=O)n(Cc1ccc(Cl)c(Cl)c1)c(=O)n2C`, the IC50 is > 110 µM (inactive).

For `CC1=NN(c2ccc(C(=O)O)cc2)C(=O)/C1=C\c1ccc(OC(=O)c2cccs2)cc1`, the concentration for half-maximal inhibition (IC50) is 44 µM. Regarding `CN(C)c1oc(-c2ccccc2[N+](=O)[O-])nc1C#N`, the IC50 was > 110 µM (inactive). As to `Cc1cc2nc(CS)[nH]c2cc1C`, the concentration for half-maximal inhibition (IC50) was 23.6 µM.

With `CC(C)OP(=O)(OC(C)C)/C(C=O)=N\Nc1ccc([N+](=O)[O-])cc1`, the IC50 is > 110 µM (inactive).

`CN(C)c1ccc(C(C[N+](=O)[O-])c2c(N)n(C)c(=O)n(C)c2=O)c(F)c1C#N` (stereo not drawn): the IC50 is > 110 µM (inactive).
